Test results: patent US20220119354A1, “DIAMINO-SUBSTITUTED PYRIDINES AND PYRIMIDINES AS HERBICIDES” (FMC Corporation, priority 2019, published 2022)

What was measured:
Format in all cases: in vivo
[1] = system: ragweed (common ragweed, Ambrosia elatior); test: Test A preemergence, ragweed; details: 0 to 100 scale, 0 is no effect, 100 is complete control
Procedure, shortened: (§1)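 Ratings reflect visual comparison with untreated controls roughly 10 d after greenhouse application, 0 meaning no effect and 100 complete control. Treatment was by directed soil spray at planting or by spray onto one- to two-leaf plants in loam/sand pots.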

[2] = system: sedge, umbrella (small-flower umbrella sedge, Cyperus difformis); test: Test B flooded paddy test, umbrella sedge; details: Flood, 250 g ai/ha, applied to paddy water, 2-leaf stage, visual evaluation after 13 to 15 d
Procedure, shortened: (§2)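 Pots flooded to 3 cm above the soil when treated, with test compound added straight to the water and the flood maintained. Treated plants were at the 2-leaf stage and stayed 13–15 d in greenhouse. Response versus untreated controls scored visually from 0 (no effect) to 100 (complete control).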

[3] = system: barnyardgrass (Echinochloa crus-galli); test: Test A postemergence, barnyardgrass; details: 0 to 100 scale, 0 no effect, 100 complete control
Procedure, shortened: as §1

[4] = system: ragweed (common ragweed, Ambrosia elatior); test: Test A postemergence, ragweed; details: 0 to 100 scale, 0 no effect, 100 complete control
Procedure, shortened: as §1

[5] = system: kochia (Kochia scoparia); test: Test A postemergence, kochia; details: 0 to 100 scale, 0 no effect, 100 complete control
Procedure, shortened: as §1

[6] = system: ryegrass, Italian (Lolium multiflorum); test: Test A preemergence, Italian ryegrass; details: 0 to 100 scale, 0 is no effect, 100 is complete control
Procedure, shortened: as §1

[7] = system: foxtail, giant (Setaria faberii); test: Test A preemergence, giant foxtail; details: 0 to 100 scale, 0 is no effect, 100 is complete control
Procedure, shortened: as §1

[8] = system: rice (Oryza sativa); test: Test B flooded paddy test, rice; details: Flood, 250 g ai/ha, applied to paddy water, 2-leaf stage, visual evaluation after 13 to 15 d
Procedure, shortened: as §2

[9] = system: barnyardgrass (Echinochloa crus-galli); test: Test B flooded paddy test, barnyardgrass; details: Flood, 250 g ai/ha, applied to paddy water, 2-leaf stage, visual evaluation after 13 to 15 d
Procedure, shortened: as §2

[10] = system: pigweed (Amaranthus retroflexus); test: Test A preemergence, pigweed; details: 0 to 100 scale, 0 is no effect, 100 is complete control
Procedure, shortened: as §1

[11] = system: kochia (Kochia scoparia); test: Test A preemergence, kochia; details: 0 to 100 scale, 0 is no effect, 100 is complete control
Procedure, shortened: as §1

[12] = system: wheat (Triticum aestivum); test: Test A postemergence, wheat; details: 0 to 100 scale, 0 no effect, 100 complete control
Procedure, shortened: as §1

[13] = system: ryegrass, Italian (Lolium multiflorum); test: Test A postemergence, Italian ryegrass; details: 0 to 100 scale, 0 no effect, 100 complete control
Procedure, shortened: as §1

[14] = system: blackgrass (Alopecurus myosuroides); test: Test A postemergence, blackgrass; details: 0 to 100 scale, 0 no effect, 100 complete control
Procedure, shortened: as §1

[15] = system: corn (Zea mays); test: Test A postemergence, corn; details: 0 to 100 scale, 0 no effect, 100 complete control
Procedure, shortened: as §1

[16] = system: pigweed (Amaranthus retroflexus); test: Test A postemergence, pigweed; details: 0 to 100 scale, 0 no effect, 100 complete control
Procedure, shortened: as §1

[17] = system: galium (catchweed bedstraw, Galium aparine); test: Test A postemergence, galium; details: 0 to 100 scale, 0 no effect, 100 complete control
Procedure, shortened: as §1

[18] = system: foxtail, giant (Setaria faberii); test: Test A postemergence, giant foxtail; details: 0 to 100 scale, 0 no effect, 100 complete control
Procedure, shortened: as §1

[19] = system: barnyardgrass (Echinochloa crus-galli); test: Test A preemergence, barnyardgrass; details: 0 to 100 scale, 0 is no effect, 100 is complete control
Procedure, shortened: as §1

[20] = system: ducksalad (Heteranthera limosa); test: Test B flooded paddy test, ducksalad; details: Flood, 250 g ai/ha, applied to paddy water, 2-leaf stage, visual evaluation after 13 to 15 d
Procedure, shortened: as §2

Row | SMILES | Ragweed plant response rating ([1]; 125 g ai/ha) | Ragweed plant response rating ([1]; 500 g ai/ha) | Plant response rating, Sedge, Umbrella (0 to 100 scale, 0 is no effect, 100 is complete control) [2] | Plant response rating, Barnyardgrass ([3]; 125 g ai/ha) | Plant response rating, Barnyardgrass ([3]; 500 g ai/ha) | Plant response rating, Ragweed ([4]; 125 g ai/ha) | Plant response rating, Ragweed ([4]; 500 g ai/ha) | Plant response rating, Kochia ([5]; 125 g ai/ha) | Plant response rating, Kochia ([5]; 500 g ai/ha) | Ryegrass, Italian plant response rating ([6]; 125 g ai/ha) | Ryegrass, Italian plant response rating ([6]; 500 g ai/ha) | Foxtail, Giant plant response rating ([7]; 125 g ai/ha) | Foxtail, Giant plant response rating ([7]; 500 g ai/ha) | Plant response rating, Rice (0 to 100 scale, 0 is no effect, 100 is complete control) [8] | Plant response rating, Barnyardgrass (0 to 100 scale, 0 is no effect, 100 is complete control) [9] | Pigweed plant response rating ([10]; 125 g ai/ha) | Pigweed plant response rating ([10]; 500 g ai/ha) | Kochia plant response rating ([11]; 125 g ai/ha) | Kochia plant response rating ([11]; 500 g ai/ha) | Plant response rating, Wheat ([12]; 125 g ai/ha) | other results
1 | Nc1nc(NC(c2cc3ccccc3o2)C2CC2)ncc1C(F)(F)F (stereo not drawn) [Compound 89] | 0 | 20 | 95 | 0 | 0 | 0 | 0 | 0 | 0 | 0 | 0 | 0 | 0 | 0 | 30 | 0 | 0 | 0 | 0 | 0 | Plant response rating, Wheat ([12]; 500 g ai/ha): 0; Plant response rating, Ryegrass, Italian ([13]; 125 g ai/ha): 0; Plant response rating, Ryegrass, Italian ([13]; 500 g ai/ha): 0; Plant response rating, Blackgrass ([14]; 125 g ai/ha): 0; Plant response rating, Blackgrass ([14]; 500 g ai/ha): 0; Plant response rating, Corn ([15]; 125 g ai/ha): 0; Plant response rating, Corn ([15]; 500 g ai/ha): 0; Plant response rating, Pigweed ([16]; 125 g ai/ha): 0; Plant response rating, Pigweed ([16]; 500 g ai/ha): 0; Plant response rating, Galium ([17]; 125 g ai/ha): 0; Plant response rating, Galium ([17]; 500 g ai/ha): 0; Plant response rating, Foxtail, Giant ([18]; 125 g ai/ha): 0; Plant response rating, Foxtail, Giant ([18]; 500 g ai/ha): 0; Barnyardgrass plant response rating ([19]; 125 g ai/ha): 0; Barnyardgrass plant response rating ([19]; 500 g ai/ha): 0; Plant response rating, Ducksalad (0 to 100 scale, 0 is no effect, 100 is complete control) [20]: 30
2 | C[C@@H](Nc1ncc(C(F)(F)F)c(N)n1)c1cc2ccccc2n1C [Compound 98] | 20 | 80 | 0 | 0 | 0 | 30 | 60 | 20 | 40 | 20 | 40 | 0 | 40 | 0 | 0 | 0 | 100 | 0 | 0 | 0 | Plant response rating, Wheat ([12]; 500 g ai/ha): 0; Plant response rating, Ryegrass, Italian ([13]; 125 g ai/ha): 0; Plant response rating, Ryegrass, Italian ([13]; 500 g ai/ha): 0; Plant response rating, Blackgrass ([14]; 125 g ai/ha): 0; Plant response rating, Blackgrass ([14]; 500 g ai/ha): 0; Plant response rating, Corn ([15]; 125 g ai/ha): 0; Plant response rating, Corn ([15]; 500 g ai/ha): 0; Plant response rating, Pigweed ([16]; 125 g ai/ha): 60; Plant response rating, Pigweed ([16]; 500 g ai/ha): 90; Plant response rating, Galium ([17]; 125 g ai/ha): 50; Plant response rating, Galium ([17]; 500 g ai/ha): 70; Plant response rating, Foxtail, Giant ([18]; 125 g ai/ha): 0; Plant response rating, Foxtail, Giant ([18]; 500 g ai/ha): 0; Barnyardgrass plant response rating ([19]; 125 g ai/ha): 20; Barnyardgrass plant response rating ([19]; 500 g ai/ha): 50; Plant response rating, Ducksalad (0 to 100 scale, 0 is no effect, 100 is complete control) [20]: 0
3 | CC(Nc1ncc([N+](=O)[O-])c(N)n1)c1cc2ccccc2s1 (stereo not drawn) [Compound 99] | 90 | 100 | 0 | 30 | 70 | 20 | 80 | 50 | 80 | 20 | 80 | 70 | 100 | 0 | 0 | 40 | 100 | 0 | 90 | 0 | Plant response rating, Wheat ([12]; 500 g ai/ha): 0; Plant response rating, Ryegrass, Italian ([13]; 125 g ai/ha): 0; Plant response rating, Ryegrass, Italian ([13]; 500 g ai/ha): 40; Plant response rating, Blackgrass ([14]; 125 g ai/ha): 0; Plant response rating, Blackgrass ([14]; 500 g ai/ha): 0; Plant response rating, Corn ([15]; 125 g ai/ha): 0; Plant response rating, Corn ([15]; 500 g ai/ha): 30; Plant response rating, Pigweed ([16]; 125 g ai/ha): 50; Plant response rating, Pigweed ([16]; 500 g ai/ha): 70; Plant response rating, Galium ([17]; 125 g ai/ha): 20; Plant response rating, Galium ([17]; 500 g ai/ha): 70; Plant response rating, Foxtail, Giant ([18]; 125 g ai/ha): 10; Plant response rating, Foxtail, Giant ([18]; 500 g ai/ha): 60; Barnyardgrass plant response rating ([19]; 125 g ai/ha): 40; Barnyardgrass plant response rating ([19]; 500 g ai/ha): 90; Plant response rating, Ducksalad (0 to 100 scale, 0 is no effect, 100 is complete control) [20]: 0
